Experimental data taken from ChEMBL document CHEMBL1821550 (Bioorg Med Chem Lett, 2011).

assay: physchem; settings: octanol/water

| Compound | logD |
| --- | --- |
| C[C@@H]1CCCN1CCc1ccc2nc(C3CC3)ccc2c1 | 2.7 |
| Cc1[nH]ncc1-c1ccc2cc(CCN3CCC[C@H]3C)ccc2n1 | 2.4 |
| C[C@@H]1CCCN1CCc1ccc2nc(-c3ccncc3)ccc2c1 | 2.5 |
| O=C(/C=C/c1ccc(C(F)(F)F)cc1)N1CCC[C@H]1CN1CCCC1 | 2.4 |
| c1cc(C2CCCCO2)ccc1OCCCN1CCCCC1 (configuration not stated) | 2.1 |
| COc1nccc2c(=O)n(C)c(-c3ccc(OC4CCN(C5CCC5)CC4)cc3)nc12 | 1.6 |
| CCc1nc2ccccc2c(=O)n1-c1ccc(OCCCN2CCCC2)cc1 | 2.4 |
| Cc1nc(-c2cccnc2)sc1-c1ccc2cc(CCN3CCC[C@H]3C)ccc2n1 | 3.5 |
| c1ccc([C@@H]2Sc3ccccc3O[C@@H]2c2ccc(OCCCN3CCCC3)cc2)cc1 | 4.5 |
| Cc1nc(-c2cnccn2)sc1-c1ccc2cc(CCN3CCC[C@H]3C)ccc2n1 | 2.7 |
| COc1cc(-c2cnc3nc(N4CCC(N5CCCCC5)CC4)sc3c2)ccn1 | 1.4 |
| COC(=O)c1c(C)noc1-c1ccc2cc(CCN3CCC[C@H]3C)ccc2n1 | 2.5 |
| C[C@@H]1CCCN1CCc1ccc(-c2ccc(S(=O)(=O)Nc3ccccc3)cc2)cc1 | 3.5 |
| Cc1ccc(-c2cnc3nc(N4CCC(N5CCCCC5)CC4)sc3c2)cn1 | 1.2 |
| Cn1nccc1-c1ccc(OCCCN2CCCCC2)cc1 | 1.8 |
| C[C@@H]1Sc2ccccc2O[C@@H]1c1ccc(OCCCN2CCCC2)cc1 | 3.3 |
| O=C(C1CC(Oc2cccc(Cl)c2)CN1)N1CCCN(C2CCC2)CC1 (configuration not stated) | 0.6 |
| COc1cccc2c1OC(c1ccc(OCCCN3CCC[C@H]3C)cc1)C(C)S2(=O)=O (some centres not stated) | 2.6 |
| C1=C(c2ccc(OCCCN3CCCCC3)cc2)CCC1 | 2.9 |
| C[C@@H]1CCCN1CCc1ccc2nc(-c3cncnc3)ccc2c1 | 1.9 |
| CC(C)N1CCN(C(=O)N2CC=C(c3ccccc3)CC2)CC1 | 1.4 |
| C[C@H]1[C@H](c2ccc(OCCCN3CCCC3)cc2)Oc2ccccc2S1(=O)=O | 2.2 |
| C[C@@H]1CCCN1CCc1ccc2nc(-c3c(O)ccnc3C(F)(F)F)ccc2c1 | 3.6 |
| COC(=O)N1CC(Oc2ccc(F)cc2)CC1C(=O)N1CCCN(C2CCC2)CC1 (configuration not stated) | 1.8 |
| CCOc1ccc(-n2ncc(-c3ccc4cc(CCN5CCC[C@H]5C)ccc4n3)c2C)nn1 | 3.8 |
| C[C@@H]1CCCN1CCc1ccc2nc(C(C)(C)C)ccc2c1 | 3.6 |

| Compound | logD |
| --- | --- |
| c1cc(-c2ccc3c(c2)OCO3)ccc1OCCCN1CCCCC1 | 2.7 |
| C[C@@H]1CCCN1CCc1ccc(-c2ccc(S(=O)(=O)N3CCCCC3)cc2)cc1 | 3.1 |
| CN(Cc1ccc(-c2ccccc2)cc1)C(=O)N1CCC[C@H]1CN1CCCC1 | 2.6 |
| C[C@@H]1CCCN1CCc1ccc2nc(-c3nc4ccccc4s3)ccc2c1 | 4.1 |
| Cc1c(-c2ccc3cc(CCN4CCC[C@H]4C)ccc3n2)sc2nc3ccccc3n12 | 4.5 |
| C[C@@H]1CCCN1CCc1ccc2nc(-c3ccc4nccnc4c3)ccc2c1 | 3.1 |
| COCCNS(=O)(=O)c1ccc(-c2ccc(CCN3CCC[C@H]3C)cc2)cc1 | 1.8 |
| Cc1nc2ccccc2c(=O)n1-c1ccc(OCCCN2CCCC2)cc1 | 1.7 |
| COc1ccc2c(c1)OC(c1ccc(OCCCN3CCCC3)cc1)C(C)S2(=O)=O (configuration not stated) | 2.2 |
| CCC(CO)NS(=O)(=O)c1ccc(-c2ccc(CCN3CCC[C@H]3C)cc2)cc1 (some centres not stated) | 2.3 |
| C[C@@H]1CCCN1CCc1ccc(-c2ccc(S(=O)(=O)NC3CCC3)cc2)cc1 | 2.9 |
| C[C@@H]1CCCN1CCc1ccc2nc(-c3c(-c4ccccc4)nn(C)c3Cl)ccc2c1 | 4.7 |
| C[C@@H]1CCCN1CCc1ccc2nc(-c3csc(-c4ccccc4)n3)ccc2c1 | 4.4 |
| Cc1cc(-c2nc(-c3ccc4cc(CCN5CCC[C@H]5C)ccc4n3)cs2)no1 | 3.5 |
| CC(C)N1CCN(C(=O)N2CCC(C(=O)OC(C)(C)C)CC2)CC1 | 0.6 |
| C[C@@H]1CCCN1CCc1ccc2nc(-c3cnccn3)ccc2c1 | 1.8 |
| Clc1cc2sc(N3CCC(N4CCCCC4)CC3)nc2cn1 | 1.2 |
| C[C@@H]1CCCN1CCc1ccc2nc(-c3cn4c(n3)SCC4)ccc2c1 | 3.1 |
| CC[C@@H]1Sc2ccccc2O[C@@H]1c1ccc(OCCCN2CCCC2)cc1 | 3.8 |
| Cc1cc(C(F)(F)F)cc(-n2ncc(-c3ccc4cc(CCN5CCC[C@H]5C)ccc4n3)c2C)n1 | 4.6 |
| CC(C)N1CCN(C(=O)N2CCC(NC(=O)C3CCCC3)CC2)CC1 | 0.2 |
| Cc1nc2cc(F)ccc2c(=O)n1-c1ccc(OCCCN2CCCC2)cc1 | 1.9 |
| Cc1nc(-c2nc(-c3ccc4cc(CCN5CCC[C@H]5C)ccc4n3)cs2)cs1 | 3.6 |
| c1ncc(-c2cc3sc(N4CCC(N5CCCCC5)CC4)nc3cn2)cn1 | 0.5 |
| Cc1nc2c(F)cccc2c(=O)n1-c1ccc(OCCCN2CCCC2)cc1 | 1.9 |
| O=C(N1Cc2ccccc2C1)N1CCC[C@H]1CN1CCCC1 | 0.9 |

| Compound | logD |
| --- | --- |
| COc1ccc(-c2cnc3nc(N4CCC(N5CCCCC5)CC4)sc3c2)cn1 | 1.4 |
| Fc1ncccc1-c1cc2sc(N3CCC(N4CCCCC4)CC3)nc2cn1 | 1.7 |
| COc1cccc2c1OC(c1ccc(OCCCN3CCC[C@H](C)C3)cc1)C(C)S2(=O)=O (some centres not stated) | 3.3 |
| C[C@@H]1CCCN1CCc1ccc(-c2ccc(S(N)(=O)=O)cc2)cc1 | 1.8 |
| Cc1ccc(-c2ccc(-c3ccc4cc(CCN5CCC[C@H]5C)ccc4n3)s2)s1 | 5.5 |
| Cc1ccc2c(=O)n(-c3ccc(OCCCN4CCCC4)cc3)c(C)nc2c1 | 2.2 |
| Cc1nc2ncccc2cc1-c1ccc2cc(CCN3CCC[C@H]3C)ccc2n1 | 3.1 |
| N#Cc1cncc(-c2cc3sc(N4CCC(N5CCCCC5)CC4)nc3cn2)c1 | 1 |
| CCn1c(-c2ccc(OCCCN3CCCCC3)cc2)nc2ccccc2c1=O | 2.6 |
| C[C@@H]1CCCN1CCc1ccc2nc(-c3csc(-c4ccc(OCC(F)(F)F)nc4)n3)ccc2c1 | 4.8 |
| O=C(C1CC(Oc2ccc(F)cc2)CN1)N1CCCN(C2CCC2)CC1 (configuration not stated) | 0.2 |
| O=C(C1CC(Oc2ccc(Cl)cc2)CN1)N1CCCN(C2CCC2)CC1 (configuration not stated) | 0.6 |
| CC1CCCN1CCc1ccc2nc(-c3cccs3)ccc2c1 (configuration not stated) | 3.6 |
| CC(C)c1nc2ccccc2c(=O)n1-c1ccc(OCCCN2CCCC2)cc1 | 2.8 |
| C[C@@H]1CCCN1CCc1ccc2nc(-c3ccc(-n4ccc(=O)cc4)cc3)ccc2c1 | 3.4 |
| COc1cc2c(cc1OC)CN(C(=O)N1CCN(C(C)C)CC1)CC2 | 1 |
| Cc1nn(C)cc1-c1ccc2cc(CCN3CCC[C@H]3C)ccc2n1 | 2.6 |
| Cc1ccc(-c2ccc3cc(CCN4CCC[C@H]4C)ccc3n2)cn1 | 2.8 |
| c1cc(C2=NCCO2)ccc1OCCCN1CCCCC1 | 1.3 |
| N#Cc1ccc(OC2CNC(C(=O)N3CCCN(C4CCC4)CC3)C2)cc1 (configuration not stated) | -0.2 |
| COc1cccc2c1OC(c1ccc(OC3CCN(C4CCC4)CC3)cc1)C(C)S2(=O)=O (configuration not stated) | 3.3 |
| COC(=O)N1CC(Oc2cccc(F)c2)CC1C(=O)N1CCCN(C2CCC2)CC1 (configuration not stated) | 1.8 |
| C[C@@H]1CCCN1CCc1ccc2nc(-c3nccs3)ccc2c1 | 2.5 |
| Fc1ccc(-c2cnc3nc(N4CCC(N5CCCCC5)CC4)sc3c2)cn1 | 1.5 |
| Cc1cc(-c2ccc3cc(CCN4CCC[C@H]4C)ccc3n2)nc(-c2ccccc2)n1 | 4.2 |
| COC1CCN(S(=O)(=O)c2ccc(-c3ccc(CCN4CCC[C@H]4C)cc3)cc2)CC1 | 2 |

| Compound | logD |
| --- | --- |
| Cn1c(-c2ccc(OC3CCN(C4CCC4)CC3)cc2)nc2ccccc2c1=O | 2.2 |
| CC1=C(c2ccc(OCCCN3CCCC3)cc2)Oc2ccccc2S1(=O)=O | 1.9 |
| CC(C)N1CCN(C(=O)N2Cc3ccccc3C2)CC1 | 0.7 |
| Cn1c(-c2ccc(OC3CCN(C4CCC4)CC3)cc2)nc2c(Cl)cccc2c1=O | 2.8 |
| CCCn1c(-c2ccc(OCCCN3CCCCC3)cc2)nc2ccccc2c1=O | 3.1 |
| C[C@@H]1CCCN1CCc1ccc2nc(-c3ccn4ncnc4n3)ccc2c1 | 2.5 |
| O=c1c2ccccc2nc(-c2ccc(OCCCN3CCCCC3)cc2)n1-c1ccccc1 | 3.8 |
| CC1CCCN1CCc1ccc2nc(-c3ccoc3)ccc2c1 (configuration not stated) | 2.7 |
| Cn1c(-c2ccc(OCCCN3CCCCC3)cc2)nc2ccccc2c1=O | 2.2 |
| C[C@@H]1CCCN1CCc1ccc(-c2ccc(S(=O)(=O)N3CCS(=O)(=O)CC3)cc2)cc1 | 1.6 |
| COc1cccc2c1OC(c1ccc(OCCCN3CCCCC3)cc1)C(C)S2(=O)=O (configuration not stated) | 2.7 |
| O=C(N1CCN(C2CCCC2)CC1)N1Cc2ccccc2C1 | 1.1 |
| Cc1nc(C)c(-c2ccc3cc(CCN4CCC[C@H]4C)ccc3n2)o1 | 2.4 |
| Nc1ccc(-c2cnc3nc(N4CCC(N5CCCCC5)CC4)sc3c2)cn1 | 0.7 |
| Cc1ccc2nc(C)n(-c3ccc(OCCCN4CCCC4)cc3)c(=O)c2c1 | 2.2 |
| C[C@@H]1CCCN1CCc1ccc2nc(-c3ccccn3)ccc2c1 | 2.9 |
| c1ncc(-c2ccc(OCCCN3CCCCC3)cc2)o1 | 1.1 |
| C[C@@H]1CCCN1CCc1ccc(-c2ccc(S(=O)(=O)NCc3ccccc3)cc2)cc1 | 3.6 |
| CC(C)N1CCN(C(=O)N2CCc3ccccc3C2)CC1 | 1 |
| C[C@@H]1CCCN1CCc1ccc2nc(-c3cnc(-c4ccccc4)s3)ccc2c1 | 4.3 |
| C[C@@H]1CCCN1CCc1ccc2nc(-c3cn[nH]c3)ccc2c1 | 2.1 |
| Cc1onc(-c2ccccc2)c1-c1ccc2cc(CCN3CCC[C@H]3C)ccc2n1 | 4.2 |
| COc1cccc2c(=O)n(-c3ccc(OCCCN4CCCC4)cc3)c(C)nc12 | 1.7 |
| Cn1c(-c2ccc(OC3CCN(C4CCC4)CC3)cc2)nc2c(F)cccc2c1=O | 2.4 |
